Source: article PMC7176540 (Chembiochem : a European journal of chemical biology, 2019)

Target: AlaI (Streptomyces alanosinicus, UniProt A0A6H1Z626)
Assay: co-purification with the enzyme
Assay type: binding
Settings: 10 uM FAD also added in assay; pH 8.0

For Cc1cc2nc3c(=O)[nH]c(=O)nc-3n(C[C@H](O)[C@H](O)[C@H](O)COP(=O)(O)OP(=O)(O)OC[C@H]3O[C@@H](n4cnc5c(N)ncnc54)[C@H](O)[C@@H]3O)c2cc1C [FAD], the “co-purification with the enzyme” value was “AlaI purified with FAD, hence we still observed activity without exogenous FAD added”.
